We go through one compound from patent US7078395B1, “Methods for treating or preventing cancer by preventing, inhibiting or arresting cell cycling” (priority 1999, dated 2006).

One assay concerns MCF-7 cells. In words: Flow cytometry analysis of cell cycle distribution (propidium iodide). In kind it is cell-based. The settings on record: 10 μM; for proportion of cells in the G1 phase: time-course study (untreated 66%). As for the experimental part:
Cells were cultured in the presence of 2-MeOE1, 2-MeOEMATE or vehicle for up to 48 h. To examine the reversibility of the effects of 2-MeOEMATE on the cell cycle, cells were treated for 24 h with the drug after which cells were washed and cultured in fresh medium without drug for a further 24 h period.
To prepare cells for analysis of DNA content, cells were trypsinised (0.25% trypsin, 0.02% EDTA), washed with PBS and fixed with 70% ethanol. Cells were collected by centrifugation, re-suspended in PBS (1-2×10^6 cells/ml) and treated with RNase A (0.1 mg/ml) and stained with propidium iodide (0.05 mg/ml) for 30 min at room temperature. Cells were analysed with a flow cytometer (FACscan, Becton Dickinson Immunocytormetry System, Bedford Mass.).
On the technique in general: Flow cytometry measures light scatter and fluorescence of single cells or particles in a stream.

The subject of assay [1] is MCF-7 breast cancer cells. In words: Irreversible inhibition of cell growth, Stage 1 and Stage 2 (Coulter cell counter). The settings on record: for cell numbers, % of the control cell number, Stage 1: 6 days. In kind it is cell-based. As for the experimental part: MCF-7 breast cancer cells were seeded into multi-well culture plates at a density of 10^5 cells/well. Cells were allowed to attach and grown until about 30% confluent when they were treated as follows:
Cells were grown for 6 days in growth medium containing the above drugs with changes of medium/drug every 3 days. At the end of this period cell numbers were counted using a Coulter cell counter.
After treatment of cells for a 6-day period with the above drugs cells were re-seeded at a density of 10^4 Cells/well. No further treatments were added. Cells were allowed to continue to grow for a further 6 days in the presence of growth medium. At the end of this period cell numbers were again counted.
Stages 1 and 2 described above were repeated using Control—no treatment, EMATE 20 μM and EMATE 5 μM.
MCF-7 breast cancer cells were seeded into multi-well culture plates at a density of 10^5 cells/well. Cells were allowed to attach and grown until about 30% confluent when they were treated as follows: • Control—no treatment • Compound of Interest (COI) 20 μM
Cells were grown for 6 days in growth medium containing the COI with changes of medium/COI every 3 days. At the end of this period cell numbers were counted using a Coulter cell counter.
After treatment of cells for a 6-day period with the COI cells were re-seeded at a density of 10^4 cells/well. No further treatments were added. Cells were allowed to continue to grow for a further 6 days in the presence of growth medium. At the end of this period cell numbers were again counted.

Regarding `COc1cc2c(cc1OS(N)(=O)=O)CCC1C2CC[C@]2(C)C(=O)CCC12` (stereo partly drawn) [2-MeOEMATE, 2-methoxyoestrone-3-O-sulphamate], the “time by which accumulation of cells in the G2/M phase was apparent” value in the assay on MCF-7 cells is not above 12 h. Further, the “proportion of cells in the G1 phase” value in the assay with MCF-7 cells (12 h exposure) was determined as 50%; in the assay on MCF-7 cells (24 h exposure), 23%. For the same compound, the entries for the “cell cycle distribution, G1” value in the assay with MCF-7 cells (24 h), with MCF-7 cells (24 h + 24 h drug-free culture) and in the assay on MCF-7 cells (48 h) were 10, 8 and 14, respectively. Moreover, the “cell cycle distribution, G2/M” value with MCF-7 cells (24 h) turned out to be 60; with MCF-7 cells (24 h + 24 h drug-free culture), 57; in the assay on MCF-7 cells (48 h) it was 58. Besides, the “cell cycle distribution, S” value in the assay on MCF-7 cells (24 h) worked out at 8; with MCF-7 cells (24 h + 24 h drug-free culture), 7; in the assay with MCF-7 cells (48 h), 9. Besides, the “cell cycle distribution, Sub-G1” value in the assay with MCF-7 cells (24 h) was 22; with MCF-7 cells (24 h + 24 h drug-free culture), 27; in the assay with MCF-7 cells (48 h), 18. Further, the “cell numbers, % of the control cell number, Stage 1” value in assay [1] (1 m (so in the source)) came to 52%; in assay [1] (5 μm), 43%. The “effect on cell numbers, Stage 2 (irreversible growth inhibition)” value in assay [1] (re-seeded after 6-day treatment, further 6 days without drug) is listed as “severely growth restricted”.
